Results published in US12275731B2, “Azaindole inhibitors of wild-type and mutant forms of LRRK2” (DANA-FARBER CANCER INSTITUTE, INC., priority 2018, dated 2025).

Experiments:
Assay in all cases: KinomeScan profiling
Format in all cases: binding
EPHA6 = molecular target: T1, EPHA6 (Homo sapiens, UniProt Q9UF33); settings: EPHA6, 1 μM; read-out: % control
T1 sequence (Q9UF33 23-1036): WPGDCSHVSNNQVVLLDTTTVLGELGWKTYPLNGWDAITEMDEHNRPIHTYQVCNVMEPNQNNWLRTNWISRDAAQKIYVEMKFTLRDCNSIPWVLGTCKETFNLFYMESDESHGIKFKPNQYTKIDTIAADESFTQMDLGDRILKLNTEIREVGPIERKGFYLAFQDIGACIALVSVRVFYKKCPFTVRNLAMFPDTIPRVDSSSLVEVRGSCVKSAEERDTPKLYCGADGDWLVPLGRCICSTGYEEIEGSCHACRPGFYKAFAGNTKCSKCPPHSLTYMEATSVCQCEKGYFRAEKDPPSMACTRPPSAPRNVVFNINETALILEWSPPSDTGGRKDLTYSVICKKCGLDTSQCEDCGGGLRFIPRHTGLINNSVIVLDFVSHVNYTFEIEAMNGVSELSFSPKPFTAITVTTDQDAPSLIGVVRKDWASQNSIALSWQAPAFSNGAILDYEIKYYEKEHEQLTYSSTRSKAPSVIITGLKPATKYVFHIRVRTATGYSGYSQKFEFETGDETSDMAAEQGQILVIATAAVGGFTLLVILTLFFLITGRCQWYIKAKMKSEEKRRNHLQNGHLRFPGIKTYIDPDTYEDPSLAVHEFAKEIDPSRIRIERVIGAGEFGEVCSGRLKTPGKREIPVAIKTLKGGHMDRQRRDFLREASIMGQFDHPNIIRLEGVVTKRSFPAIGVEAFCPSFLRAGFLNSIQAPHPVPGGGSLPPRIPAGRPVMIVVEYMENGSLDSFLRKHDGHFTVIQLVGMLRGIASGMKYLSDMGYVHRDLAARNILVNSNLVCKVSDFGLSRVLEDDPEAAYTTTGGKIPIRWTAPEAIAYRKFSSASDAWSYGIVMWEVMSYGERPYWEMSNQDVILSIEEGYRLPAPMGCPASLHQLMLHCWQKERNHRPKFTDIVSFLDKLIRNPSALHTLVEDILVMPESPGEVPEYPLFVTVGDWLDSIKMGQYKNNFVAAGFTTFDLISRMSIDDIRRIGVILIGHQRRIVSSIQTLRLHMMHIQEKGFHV
In short: (§1)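 Normalised RLU (% control; DMSO 100%, positive control 0%) was measured for compounds dosed at 1 μM over 468 kinases, active cut-off <35%.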

LZK = molecular target: T2, LZK (Homo sapiens, UniProt O43283); settings: read-out: % control
T2 sequence (O43283 1-966): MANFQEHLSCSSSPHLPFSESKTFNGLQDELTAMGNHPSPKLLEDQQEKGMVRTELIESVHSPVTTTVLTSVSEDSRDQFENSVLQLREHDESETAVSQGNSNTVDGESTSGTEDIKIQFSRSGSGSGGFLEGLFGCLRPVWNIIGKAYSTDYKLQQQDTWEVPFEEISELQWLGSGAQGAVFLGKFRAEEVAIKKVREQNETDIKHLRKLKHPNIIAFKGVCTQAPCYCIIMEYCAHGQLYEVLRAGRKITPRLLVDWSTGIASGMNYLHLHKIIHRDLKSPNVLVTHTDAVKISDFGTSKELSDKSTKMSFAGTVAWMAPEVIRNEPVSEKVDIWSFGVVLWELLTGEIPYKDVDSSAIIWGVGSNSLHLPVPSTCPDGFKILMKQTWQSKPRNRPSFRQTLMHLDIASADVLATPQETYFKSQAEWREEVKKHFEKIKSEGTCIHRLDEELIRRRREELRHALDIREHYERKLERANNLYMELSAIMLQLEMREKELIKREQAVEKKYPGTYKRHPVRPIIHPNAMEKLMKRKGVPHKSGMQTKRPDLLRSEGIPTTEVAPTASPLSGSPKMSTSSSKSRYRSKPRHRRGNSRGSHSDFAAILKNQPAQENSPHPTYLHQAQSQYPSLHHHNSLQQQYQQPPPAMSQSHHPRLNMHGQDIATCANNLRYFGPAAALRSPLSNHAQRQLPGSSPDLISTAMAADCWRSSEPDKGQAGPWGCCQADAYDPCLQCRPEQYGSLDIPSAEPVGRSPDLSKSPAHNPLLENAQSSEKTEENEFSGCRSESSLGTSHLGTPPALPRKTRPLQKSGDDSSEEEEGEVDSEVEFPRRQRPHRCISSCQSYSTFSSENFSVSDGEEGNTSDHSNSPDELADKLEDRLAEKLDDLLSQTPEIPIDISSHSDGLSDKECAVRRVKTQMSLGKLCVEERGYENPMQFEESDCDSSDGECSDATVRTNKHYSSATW
In short: as §1

NEK4 = NEK4 (Homo sapiens, UniProt P51957); settings: NEK4, 1 μM; read-out: % control
In short: as §1

PRKG1 = molecular target: T3, PRKG1 (Homo sapiens, UniProt Q13976); settings: PRKG1, 1 μM; read-out: % control
T3 sequence (Q13976 1-671): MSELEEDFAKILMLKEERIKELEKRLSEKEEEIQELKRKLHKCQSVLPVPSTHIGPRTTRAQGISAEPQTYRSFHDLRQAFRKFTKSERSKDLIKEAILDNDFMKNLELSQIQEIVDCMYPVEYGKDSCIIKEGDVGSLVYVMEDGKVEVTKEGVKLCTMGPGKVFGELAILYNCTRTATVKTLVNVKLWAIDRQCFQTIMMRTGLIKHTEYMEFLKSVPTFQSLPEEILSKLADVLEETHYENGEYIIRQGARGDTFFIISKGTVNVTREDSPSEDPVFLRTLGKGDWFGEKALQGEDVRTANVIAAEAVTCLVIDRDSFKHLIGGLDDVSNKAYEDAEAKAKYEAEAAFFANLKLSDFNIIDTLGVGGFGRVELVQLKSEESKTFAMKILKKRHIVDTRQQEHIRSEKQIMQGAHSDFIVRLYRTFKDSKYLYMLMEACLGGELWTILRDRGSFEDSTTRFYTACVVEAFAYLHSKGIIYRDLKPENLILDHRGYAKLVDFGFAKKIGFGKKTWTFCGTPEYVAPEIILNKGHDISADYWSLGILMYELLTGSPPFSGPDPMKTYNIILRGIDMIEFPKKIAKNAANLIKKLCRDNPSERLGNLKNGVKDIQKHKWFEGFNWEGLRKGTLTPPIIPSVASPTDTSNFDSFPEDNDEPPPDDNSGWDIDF
In short: as §1

Sequence of NEK4 (P51957 whole entry): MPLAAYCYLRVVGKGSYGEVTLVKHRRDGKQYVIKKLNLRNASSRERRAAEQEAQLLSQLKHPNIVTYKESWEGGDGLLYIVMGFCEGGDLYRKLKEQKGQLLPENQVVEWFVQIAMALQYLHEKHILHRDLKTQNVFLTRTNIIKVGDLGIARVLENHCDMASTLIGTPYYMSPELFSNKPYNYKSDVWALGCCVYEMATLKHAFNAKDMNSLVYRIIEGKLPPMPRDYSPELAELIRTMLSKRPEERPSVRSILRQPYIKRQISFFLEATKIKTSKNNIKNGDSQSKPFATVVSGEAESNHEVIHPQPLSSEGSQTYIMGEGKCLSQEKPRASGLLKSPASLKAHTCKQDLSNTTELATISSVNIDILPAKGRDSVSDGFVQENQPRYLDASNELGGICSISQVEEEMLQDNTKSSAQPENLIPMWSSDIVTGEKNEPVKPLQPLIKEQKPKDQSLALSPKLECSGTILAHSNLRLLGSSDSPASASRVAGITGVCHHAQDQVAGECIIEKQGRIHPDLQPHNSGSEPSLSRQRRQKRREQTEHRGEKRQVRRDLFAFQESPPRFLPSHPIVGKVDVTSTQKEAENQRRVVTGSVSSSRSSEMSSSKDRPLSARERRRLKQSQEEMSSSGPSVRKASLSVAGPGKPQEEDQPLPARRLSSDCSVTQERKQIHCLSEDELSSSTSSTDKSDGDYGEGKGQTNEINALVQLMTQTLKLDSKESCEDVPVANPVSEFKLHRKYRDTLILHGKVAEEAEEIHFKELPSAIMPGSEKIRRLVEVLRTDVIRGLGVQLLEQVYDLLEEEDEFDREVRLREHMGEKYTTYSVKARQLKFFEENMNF

| Compound | remaining binding at 1 µM (EPHA6) [%] | remaining binding at 1 µM (LZK) [%] | remaining binding at 1 µM (NEK4) [%] | remaining binding at 1 µM (PRKG1) [%] |
| --- | --- | --- | --- | --- |
| CNc1c(-c2ccc(C(=O)N3CCC(N4CCOCC4)CC3)cc2)cnc2[nH]cc(Cl)c12 [Compound 96, (4-(3-chloro-4-(methylamino)-1H-pyrrolo[2,3-b]pyridin-5-yl)phenyl)(4-morpholinopiperidin-1-yl)methanone] | 98 | 89 | 65 | 100 |
| O=C(c1ccc(-c2cnc3[nH]cc(Cl)c3c2NC2CCCC2)cc1)N1CCC(N2CCOCC2)CC1 [Compound 101, (4-(3-chloro-4-(cyclopentylamino)-1H-pyrrolo[2,3-b]pyridin-5-yl)phenyl)(4-morpholinopiperidin-1-yl)methanone] | 43 | 76 | 100 | 89 |
| CNc1c(-c2cnn([C@H]3CCN(C(C)=O)C[C@@H]3F)c2)cnc2[nH]cc(Cl)c12 [Compound 77, 1-((3S,4S)-4-(4-(3-chloro-4-(methylamino)-1H-pyrrolo[2,3-b]pyridin-5-yl)-1H-pyrazol-1-yl)-3-fluoropiperidin-1-yl)ethan-1-one] | 93 | 61 | 82 | 100 |
